According to patent US12528846B2, “BH4 stabilized peptides and uses thereof” (Dana-Farber Cancer Institute, Inc., priority 2013, dated 2026):
Entries after “also recorded” stand apart in the source; their conditions may differ. Positions of bridges follow the written chain, without caps; N, C: chain ends. Non-standard residues stand in square brackets, D forms with d. Residues, ends and D or L forms follow the SMILES beside them. S5 = C=CCCC[C@](C)(N)C(=O)O; Nle = CCCC[C@H](N)C(=O)O

Key:
[1] = molecular target: T1, Recombinant BAX (Homo sapiens, UniProt Q07812); assay: HXMS of BH4 SAHBs after pre-equilibration with recombinant BAX protein; format: binding; details: 15-minute pre-equilibration, 1:2 BAX protein to BH4 SAHB molar ratio
T1 construct: made in house
T1 sequence (Q07812 whole entry): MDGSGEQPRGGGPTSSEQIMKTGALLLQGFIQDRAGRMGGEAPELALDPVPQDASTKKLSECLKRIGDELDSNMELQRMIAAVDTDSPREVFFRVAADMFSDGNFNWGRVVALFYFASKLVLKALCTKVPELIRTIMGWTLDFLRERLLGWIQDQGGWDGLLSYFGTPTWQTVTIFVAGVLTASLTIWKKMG
Method: (§1) The structural stability of the BCL-2 BH4 staple-scan panel of SAHBs was determined by hydrogen/deuterium mass spectrometry (HXMS). In these experiments, the BH4 SAHBs were labeled with deuterium for 2 seconds, 5 seconds, 10 seconds, 1 minute, 10 minutes, and 1 hour, followed by quenching with cold phosphate buffer (pH 2.5), and then immediately subjected to desalting and injection on a LCT Premier Mass Spectrometer (Waters Corporation). The relative uptake of deuterium was determined for each BH4 SAHB by dividing the mass of the corresponding undeuterated control. Labeling was performed with the BH4 SAHB peptide alone and following a 15-minute pre-equilibration with recombinant BAX protein (purified as previously described in Walensky et al. (Mol. Cell 24:199-210, 2006) and Gavathiotis et al. (Nature 455:1076-1081, 2008)) at a 1:2 BAX protein to BH4 SAHB peptide molar ratio.

[2] = molecular target: T1, Recombinant BAX; assay: HXMS of recombinant BAX with or without BCL-2 BH4 SAHBA; format: binding; details: two molar excess of peptide, 10 seconds to 2 hours
Method: In additional studies, recombinant BAX protein was labeled with deuterium in the presence or absence of a two molar access of BCL-2 BH4 SAHBA for 10 seconds, 1 minute, 10 minutes, and 2 hours. Following the corresponding incubation period in D20 buffer, each sample was quenched with ice-cold phosphate buffer (pH 2.5) and injected on a custom Waters NanoACQUITY UPLC HDX Manager for analysis as described in Wales et al. (Anal. Chem. 80:6815-6820, 2008). Mass spectra were obtained with a Synapt G2 mass spectrometer (Waters Corporation) and analyzed with the DynamX software package (Waters Corporation). The data shown in FIG. 15A are the average of two duplicate experiments, where the relative difference (Da) shown for each peptide is equivalent to the relative deuterium uptake of the corresponding peptide in the BAX alone control minus the relative deuterium uptake of the peptide in the BCL-2 BH4 SAHBA-bound BAX sample. A significant relative difference is established as 0.4 Da. […] A significant relative difference in uptake is observed in the region of BAX al and the loop between α1 and α2, indicative of structural stabilization of this region of BAX protein as a result of BCL-2 BH4 SAHBA binding.

[3] = molecular target: T1, Recombinant BAX; assay: Liposomal ANTS/DPX release, heat-induced BAX activation; format: biochemical; details: 500 nM BAX, liposomes, 37° C.
[4] = Hydrogen/deuterium mass spectrometry (HXMS) of BH4 SAHB peptide alone (structural stability); format: physicochemical; details: deuterium labeling 2 seconds to 1 hour
Method: as §1

[5] = molecular target: T1, Recombinant BAX; assay: Liposomal ANTS/DPX release, BIM SAHBA-triggered BAX activation; format: biochemical; details: 1.5 μM BIM SAHBA, 0.75 μM BAX, variety of peptide concentrations
Method: In these experiments, the BCL-2 BH4 SAHBA and unmodified BCL-2 BH4 peptide were incubated with 1.5 μM BIM SAHBA (Gavathiotis et al., Nature 455:1076-1081, 2008), 0.75 μM recombinant BAX protein, and 5 μL liposomes loaded with the ANTS and DPX (described above) at a variety of different concentrations.
A complete panel of BCL-2 BH4 SAHBA alanine and glutamine point mutants (0.75 μM) were screened for inhibition of BIM SAHBA (0.75 μM)-triggered BAX activation (0.75 μM) using the liposome release assay described above. The data were normalized to a 100% percent positive control level of liposome release achieved using BIM SAHBA and BAX alone, after correction for any intrinsic fluorescence detected for each FITC-labeled BCL-2 BH4 SAHB (0%). […] The alanine scanning data are also useful for designing the placement of staples in the BCL-2 BH4 peptides.

[6] = molecular target: T2, endogenous BAX (Homo sapiens, UniProt Q07812); assay: Streptavidin pull-down of biotinylated SAHB from HeLa cell lysates; format: binding; details: 20 μM biotinylated peptide, 16 hrs at 4° C.
T2 construct: endogenous in cells; host or cells: HeLa
T2 sequence (Q07812 whole entry): as above
Method: HeLa cell lysates (0.5 mg) were incubated with vehicle (DMSO), biotinylated BCL-2 BH4 SAHBA (20 μM), or BCL-2 BH4 SAHBA L23A (20 μM) for 16 hrs at 4° C. prior to addition of high-capacity streptavidin agarose resin (Thermo Scientific). After three successive washes, associated protein was eluted from the resin into LDS sample buffer and analyzed by Western blot with the anti-BAX N20 antibody (Santa Cruz). […] The immunoblot in FIG. 19B is representative of three independent experiments.

[7] = molecular target: T1, Recombinant BAX; assay: BAX 6A7 immunoprecipitation (N-terminal conformational activation); format: biochemical; details: 1 μM BAX, liposomes, 1 μM BIM SAHB, peptide 0-2.0 μM, 30 min
Method: An additional experiment was performed to determine whether BCL-2 BH4 SAHB binding would be capable of preventing the N-terminal unfolding characteristic of activated BAX. In this experiment, recombinant BAX was incubated with liposomes and a molar equivalent of BIM SAHB in the presence of increasing amounts of BCL-2 BH4 SAHBA or BCL-2 BH4 SAHBA L23A. After a 30 min pre-incubation period to allow for activation to proceed, the liposomal mixtures were subjected to immunoprecipitation with the BAX 6A7 antibody (Santa Cruz), which specifically recognizes the N-terminal epitope on BAX (residues 12-24) that is exposed during activation (Hsu et al., 1997). Immunoprecipitated protein was resolved by electrophoresis and immunoblotted with an antibody specific for BAX. […] Importantly, the L23A mutant version of the BH4 peptide, which was shown in the liposomal release assay to disrupt its inhibitory activity, had no effect on BAX 6A7 reactivity. The BAX 6A7 immunoprecipitation was carried out as follows. Recombinant BAX (1 μM) was mixed with liposomes and 1 μM BIM SAHB in the presence of increasing doses of BCL-2 BH4 SAHBA or BCL-2 BH4 SAHBA L23A (0 μM, 0.25 μM, 0.5 μM, 1.0 μM, and 2.0 μM). Following a 30 min incubation at room temperature, the mixture was immunoprecipitated with a-BAX 6A7 (Santa Cruz) and resolved by electrophoresis. […]

[8] = molecular target: T1, Recombinant BAX; assay: HXMS of recombinant BAX with liposomes, BIM SAHB with or without BCL-2 BH4 SAHBA; format: biochemical; details: molar equivalent of BIM SAHB plus two molar excess of peptide
Method: Recombinant BAX protein was pre-equilibrated for 15 min with liposomes in the presence or absence of a molar equivalent of BIM SAHB (FIG. 15B) or a molar equivalent of BIM SAHB and a two molar excess of BCL-2 BH4 SAHBA (FIG. 15C), and then labeled with deuterium for 10 seconds, 1 minute, 10 minutes, and 2 hours. Following the corresponding incubation period in D20 buffer, each sample was quenched with ice-cold guanidine chloride buffer (pH 2.6) and then subjected to proteolysis on ice for 5 minutes. The samples were next injected on a custom Waters NanoACQUITY UPLC HDX Manager for analysis as described above. Mass spectra were obtained with a Synapt G2 mass spectrometer (Waters Corporation) and analyzed with the DynamX software package (Waters Corporation). The data shown in FIG. 15B are the duplicate of two experiments, where the relative difference (Da) shown for each BAX peptide fragment is equivalent to the relative deuterium uptake of the peptide in the BIM SAHB-activated BAX sample minus the relative deuterium uptake of the corresponding peptide in the BAX alone control. […] Mass spectra were obtained with a Synapt G2 mass spectrometer (Waters Corporation) and analyzed with the DynamX software package (Waters Corporation). […]

[9] = test system: BAX-overexpressing HeLa cells; assay: Viability of transfected HeLa cells treated with staurosporine (CellTiter-Glo); format: cell-based; details: 325 nM staurosporine, 24-hour treatment
Method: Viability of the transfected cells subjected to 24-hour treatment with 325 nM staurosporine or no treatment with staurosporine was determined by addition of CellTiter-Glo reagent (Promega). The data shown in FIG. 20A are representative of three independent experiments.
This BCL-2-based rescue is negated upon co-expression of BAX with the L23A mutant form of BCL-2 (FIG. 20A).

| Compound | deuterium uptake of BH4 SAHB upon addition of recombinant BAX protein [1] | deuterium uptake by BAX protein upon peptide engagement [2] | heat-induced activation of BAX and BAX-mediated poration [3] | relative deuterium uptake of BH4 SAHB peptide alone [4] | BAX activation in response to BIM SAHBA treatment (liposomal poration) [5] | pull-down of BAX from HeLa cell lysates [6] | pull-down of BAX from HeLa cell lysates ([6]; listed as biotinylated-BCL-2 BH4 SAHBA) | BAX 6A7 reactivity (BIM SAHB-triggered BAX activation) [7] | differences in relative uptake of BIM SAHB-treated BAX compared to BAX alone [8] | apoptosis of transfected HeLa cells [9] |
| --- | --- | --- | --- | --- | --- | --- | --- | --- | --- | --- |
| CCCC[C@H](NC(=O)[C@@H](NC(=O)[C@@H](NC(=O)[C@H](CCC(=O)O)NC(C)=O)[C@@H](C)CC)C(C)C)C(=O)N[C@@H](CCCCN)C(=O)N[C@@H](Cc1ccc(O)cc1)C(=O)N[C@H](C(=O)N[C@@H](Cc1c[nH]cn1)C(=O)N[C@@H](Cc1ccc(O)cc1)C(=O)N[C@@H](CCCCN)C(=O)N[C@@H](CC(C)C)C(=O)N[C@@H](CO)C(=O)N[C@@]1(C)CCCC=CCCC[C@@](C)(C(=O)N[C@@H](Cc2c[nH]c3ccccc23)C(=O)N[C@@H](CC(=O)O)C(=O)N[C@@H](C)C(N)=O)NC(=O)[C@H](Cc2ccc(O)cc2)NC(=O)CNC(=O)[C@H](CCCNC(=N)N)NC1=O)[C@@H](C)CC [BCL-2 BH4 SAHBA] (Ac-EIV[Nle]KYIHYKLS[S5]RGY[S5]WDA-NH2; staple 13-17; N-terminus and C-terminus assumed) | reduced uptake | decrease in deuterium uptake | dose-responsively decreased | markedly reduced uptake | dose-responsively decreased; also recorded: dose-responsively blocks | specifically interacted | specifically immunoprecipitated | dose-responsively reduces; also recorded: dose-responsively inhibited | complete suppression; also recorded: can block the changes in BAX conformation | – |
| CN[C@@H]1C[C@H]2O[C@@](C)([C@@H]1OC)n1c3ccccc3c3c4c(c5c6ccccc6n2c5c31)C(=O)NC4 [staurosporine] | – | – | – | – | – | – | – | – | – | induces apoptosis |
